From US20060275333A1, “Composition with beads for treatment of contact dermatitis” (Humco Holding Group, Inc., priority 2005, published 2006)

Tests used:
[1] = test system: IL-6; test: IL-6 release from Epiderm artificial skin, ELISA of culture media; assay type: cell-based, human
Description: (§1) When urushiol is applied to human skin it can elicit the synthesis and release of several key inflammatory cytokines, including IL-1α, IL-1β, IL-6, and IL-8. Release of these cytokines also has been noted in cultured keratinocyte models after the application of urushiol. IL-1α and IL-6 are synthesized and stored in keratinocytes and have been identified as mediators of skin irritation and inflammation. Release of these two cytokines can be measured directly in tissue culture media by a calorimetric enzyme linked immunosorbent assay (ELISA). In such measurements, antibodies covalently linked to a solid support will bind any IL-1α or IL-6 present in spent culture media samples. A second antibody that is covalently attached to an acetylcholinesterase enzyme will in turn detect the bound cytokines. Upon addition of an appropriate color substrate the acetylcholinesterase enzyme will in turn detect the bound cytokines. Upon addition of an appropriate color substrate the acetylcholinesterase enzyme will generate a colored end product that can be measured spectrophotometrically.
Testing of the invention herein was conducted using an artificial skin product designed for toxicity testing and sold under the name Epiderm® by Mat Tek Corporation of Ashland, Massachusetts. This artificial skin product consists of normal human-derived epidermal keratinocytes that have been cultured to form a multilayered, highly differentiated model of the human epidermis. […] Markers of mature epidermis specific differentiation such as profilaggrin, the K1/K10 cytokeratin pair, involucrin, and type I epidermal transglutaminase have been localized in this product. The product is also mitotically and metabolically active.
The Epidermic tissue samples were stored at 2-8° C. until used. The analyses were conducted with an ELISA test kit from Cayman Chemicals of Ann Arbor, Michigan, with all buffers and reagents being prepared according to the kit's instructions and allowed to come to room temperature. Prior to use, the tissues were removed from the agarose shipping tray and placed into a 6-well plate containing 1.0 ml of assay medium from the test kit, at 37±2° C. The tissues were allowed to incubate for one hour at 37±2° C. and 5±1% CO2. After this initial incubation, the assay medium was replaced with 1 ml of fresh medium at 37±2° C. […] The collected culture media were stored at −75±5° C. until analyzed for IL-1α and IL-6 levels. The IL-1α and IL-6 levels were determined by comparison with a standard curve generated from samples having known concentrations of these two cytokines. […] Absorbance values for the test materials and untreated samples were then used to estimate the amount of cytokine present in each sample.

[2] = test system: IL-1α; test: IL-1α release from Epiderm artificial skin, ELISA of culture media; assay type: cell-based, human
Description: as §1, with “A second antibody that is covalently attached to an acetylcholinesterase enzyme will in turn detect the bound cytokines. Upon addition of an appropriate color substrate the acetylcholinesterase enzyme will in turn detect the bound cytokines.” left out, “spectrophotometrically. […]” for “spectrophotometrically.”
The Epidermic tissue samples were stored at 2-8° C. until used. […] The collected culture media were stored at −75±5° C. until analyzed for IL-1α and IL-6 levels. The IL-1α and IL-6 levels were determined by comparison with a standard curve generated from samples having known concentrations of these two cytokines. […] Absorbance values for the test materials and untreated samples were then used to estimate the amount of cytokine present in each sample.

[3] = test system: Epiderm normal human-derived epidermal keratinocytes; test: MTT assay of tissue viability of Epiderm artificial skin; assay type: cell-based; settings: after the 48-hour time period; untreated tissues = 100%; same test materials
Procedure: The efficacy of nonylphenol ethoxylate on urushiol-induced dermatitis was evaluated by ELISA and MTT techniques. The MTT evaluation was based on a technique first described in Mosmann, T., “Rapid calorimetric assay for cellular growth and survival: application to proliferation and cytotoxicity assays,” J. Immunol. Methods, Dec. 16, 1983, 65(1-2):55-63. The analysis is based on the compound [3-(4,5-dimethylthiazol-2-yl)-2,5-diphenyltetrazolium bromide], commonly referred to as MTT. As reported by Mosmann, mitochondrial dehydrogenase enzyme from viable cells can cleave the tetrazolium rings of the pale yellow MTT and form dark blue formazin crystals. The crystals cannot permeate cell membranes, and thus tend to accumulate within healthy cells. […] The formazin is extracted with isopropanol and measured spectrophotometrically. […]
Epidermal irritation often is associated with a loss of viable ketinocytes. Therefore, changes in tissue viability after exposure to urushiol and the test were assessed using the MTT assay described above. […] After the extraction, a 200 μl sample from each well of the isopropanol/MTT mixture was transferred to a 96-well plate and the absorbance of the sample was read at 540 nm with a plate reader using 200 μl of isopropanol as the blank.
The mean MTT absorbance value for the untreated tissues was calculated and used to represent 100% tissue viability. […]

[4] = exposed to 50 micrograms of purified urushiol; cited from earlier work
[5] = 4 Hours, Epiderm tissue, 100 μl test material, Urushiol = control lotion 0.05% 2-deoxy-urushiol, Nonylphenol Ethoxylate = control lotion + 0.2% w/v nonyl phenyl ethoxylate

SMILES: CCCCCCCCCCCCCCCc1cccc(O)c1O [Urushiol]
- IL-6 Accumulation in Cell Culture Media [1, 5]: 1.9 ± 0.4 pg/mL
- IL-6 Accumulation in Cell Culture Media ([1]; 12 Hours, same test materials): 5.1 ± 0.4 pg/mL
- IL-6 Accumulation in Cell Culture Media ([1]; 24 Hours, same test materials): 9.4 ± 0.3 pg/mL
- IL-6 Accumulation in Cell Culture Media ([1]; 48 Hours, same test materials): 16.4 ± 1.4 pg/mL
- IL-1α Accumulation in Cell Culture Media [2, 5]: 16.1 ± 5.2 pg/mL
- IL-1α Accumulation in Cell Culture Media ([2]; 12 Hours, same test materials): 32.6 ± 6.3 pg/mL
- Percent Viability (MTT Assay) [3]: 88 ± 5%
- adult Americans who get a rash [4]: 80-90%
